Measurements reported in patent US20180000085A1, “USE OF PICOLINAMIDE COMPOUNDS WITH FUNGICIDAL ACTIVITY” (DOW AGROSCIENCES LLC, priority 2014, published 2018).

Experiments:
Format in all cases: in vivo
Zymoseptoria tritici = assay: Leaf blotch of wheat (SEPTTR) disease control on wheat seedlings; settings: low volume application, 125.1 g/H; for SEPTTR 1DP disease control rating, LV activity at 125.1 g/H: 1 day protectant; for SEPTTR 3DC disease control rating, LV activity at 125.1 g/H: 3 day curative
Puccinia triticina = assay: Wheat brown rust (PUCCRT) disease control on wheat seedlings; set-up: key to PUCCRT 3DC, HV activity at 100 ppm (% control rating) / PUCCRT disease control, 3DC / PUCCRT 1DP disease control rating, HV activity / PUCCRT 3DC disease control rating, HV activity / PUCCRT 3DC, LV activity at 125.1 g/H (% Control rating) / PUCCRT 1DP, LV activity at 125.1 g/H (% Control rating) / PUCCRT 3DC disease control rating, LV activity at 125.1 g/H / PUCCRT 1DP disease control rating, LV activity at 125.1 g/H / PUCCRT 3DC disease control rating, HV activity at 100 ppm / PUCCRT 1DP disease control rating, HV activity at 100 ppm / HV activity at 100 ppm PUCCRT 3DC (disease control rating) / LV activity at 125.1 g/H PUCCRT 1DP (disease control rating) / LV activity at 125.1 g/H PUCCRT 3DC (disease control rating): A: > 80; B: ≤ 80; C: Not Tested; D: No Activity Observed in the Reported Assay; settings: low volume application, 125.1 g/H; for PUCCRT 1DP disease control rating, LV activity at 125.1 g/H: 1 day protectant; for PUCCRT 3DC disease control rating, LV activity at 125.1 g/H: 3 day curative
Alternaria solani = assay: Tomato early blight (ALTESO) disease control; set-up: key: A: > 80; B: ≤ 80; C: Not Tested; D: No Activity Observed in the Reported Assay; settings: 100 ppm, 1 Day Protectant
Description: All fungicides were evaluated using the aforementioned method for their activity vs. all target diseases, unless stated otherwise. Wheat leaf blotch and brown rust activity were also evaluated using track spray applications, in which case the fungicides were formulated as EC formulations, containing 0.1% Trycol 5941 in the spray solutions. Wheat plants (variety Yuma) were grown from seed in a greenhouse in 50% mineral soil/50% soil-less Metro mix until the first leaf was fully emerged, with 7-10 seedlings per pot. These plants were inoculated with an aqueous spore suspension of Zymoseptoria tritici either prior to or after fungicide treatments. After inoculation the plants were kept in 100% relative humidity (one day in a dark dew chamber followed by two to three days in a lighted dew chamber at 20° C.) to permit spores to germinate and infect the leaf. The plants were then transferred to a greenhouse set at 20° C. for disease to develop. When disease symptoms were fully expressed on the 1st leaves of untreated plants, infection levels were assessed on a scale of 0 to 100 percent disease severity. Percent disease control was calculated using the ratio of disease severity on treated plants relative to untreated plants. Example J: Evaluation of Fungicidal Activity: Tomato Early Blight (Alternaria solani; Bayer Code […]) Tomato plants (variety Outdoor Girl) were propagated in soil-less Metro mix, with each pot having one plant, and used when 12 to 14 days old. Test plants were inoculated with an aqueous spore suspension of Alternaria solani 24 hr after fungicide treatments. After inoculation the plants were kept in a dew room at 22° C. with 100% relative humidity for 48 h to permit spores to germinate and infect the leaf. The plants were then transferred to a growth room at 22° C. for disease to develop. Fungicide formulation, application and disease assessment on the sprayed leaves followed the procedures as described in the Example A.

| SMILES | SEPTTR 1DP, LV activity at 125.1 g/H (% Control rating) (Zymoseptoria tritici; 1 Day Protectant) | SEPTTR 3DC, LV activity at 125.1 g/H (% Control rating) (Zymoseptoria tritici; 3 Day Curative) | PUCCRT 1DP, LV activity at 125.1 g/H (% Control rating) (Puccinia triticina; 1 Day Protectant) | PUCCRT 3DC, LV activity at 125.1 g/H (% Control rating) (Puccinia triticina; 3 Day Curative) | ALTESO disease control, 1DP (Alternaria solani) | SEPTTR 1DP disease control rating, LV activity at 125.1 g/H (Zymoseptoria tritici) | SEPTTR 3DC disease control rating, LV activity at 125.1 g/H (Zymoseptoria tritici) | PUCCRT 1DP disease control rating, LV activity at 125.1 g/H (Puccinia triticina) | PUCCRT 3DC disease control rating, LV activity at 125.1 g/H (Puccinia triticina) | LV activity at 125.1 g/H SEPTTR 1DP (disease control rating) (Zymoseptoria tritici; 1 Day Protectant, wheat leaf blotch) | LV activity at 125.1 g/H SEPTTR 3DC (disease control rating) (Zymoseptoria tritici; 3 Day Curative, wheat leaf blotch) | LV activity at 125.1 g/H PUCCRT 1DP (disease control rating) (Puccinia triticina; 1 Day Protectant, wheat brown rust) | LV activity at 125.1 g/H PUCCRT 3DC (disease control rating) (Puccinia triticina; 3 Day Curative, wheat brown rust) |
| --- | --- | --- | --- | --- | --- | --- | --- | --- | --- | --- | --- | --- | --- |
| CC[C@@H](CCOC)[C@@H](Oc1ccccc1)[C@H](C)OC(=O)[C@H](C)NC(=O)c1nccc(OC)c1OCOC(C)=O [Cmpd 476] | A (> 80) | A (> 80) | A (> 80) | A (> 80) | B (≤ 80) |  |  |  |  |  |  |  |  |
| CCC(CC)[C@@H](Oc1ccc(F)cc1)[C@H](C)OC(=O)[C@H](C)NC(=O)c1nccc(OC)c1OCOC(C)=O [Cmpd 587] | A (> 80) | A (> 80) | A (> 80) | A (> 80) | D |  |  |  |  |  |  |  |  |
| COc1ccnc(C(=O)N[C@@H](C)C(=O)O[C@@H](C)[C@H](Oc2ccccc2)C(C)C)c1OCOC(C)=O [Cmpd 475] | A (> 80) | A (> 80) | A (> 80) | A (> 80) | B (≤ 80) |  |  |  |  |  |  |  |  |
| CCC(CC)[C@@H](Oc1ccccc1)[C@H](C)OC(=O)[C@H](C)NC(=O)c1nccc(OC)c1OCOC(C)=O [Cmpd 477] | A (> 80) | A (> 80) | A (> 80) | A (> 80) | B (≤ 80) |  |  |  |  |  |  |  |  |
| COc1ccnc(C(=O)N[C@@H](C)C(=O)O[C@@H](C)[C@H](Oc2cccc(Cl)c2)c2ccccc2)c1OCOC(C)=O [Cmpd 637] | A (> 80) | A (> 80) | A (> 80) | B (≤ 80) | D |  |  |  |  |  |  |  |  |
| CC[C@@H](CCOC)[C@@H](Oc1ccccc1)[C@H](C)OC(=O)[C@H](C)NC(=O)c1nccc(OC)c1OC(C)=O [Cmpd 482] | A (> 80) | A (> 80) | A (> 80) | A (> 80) | B (≤ 80) |  |  |  |  |  |  |  |  |
| CCC[C@@H](Oc1ccccc1)[C@H](C)OC(=O)[C@H](C)NC(=O)c1nccc(OC)c1OCOC(C)=O [Cmpd 699] |  |  |  |  | B (≤ 80) | A (> 80) | A (> 80) | A (> 80) | A (> 80) |  |  |  |  |
| COc1ccnc(C(=O)N[C@@H](C)C(=O)O[C@@H](C)[C@@H](CC(C)C)Oc2ccccc2)c1OCOC(=O)C(C)C [Cmpd 1101] |  |  |  |  | D |  |  |  |  | A (> 80) | A (> 80) | A (> 80) | A (> 80) |
| CCC(C)C(Oc1ccccc1)C(C)OC(=O)C(C)NC(=O)c1nccc(OC)c1OCOC(C)=O (stereo not drawn) [Cmpd 692] |  |  |  |  | B (≤ 80) | A (> 80) | A (> 80) | A (> 80) | A (> 80) |  |  |  |  |
| COc1ccnc(C(=O)N[C@@H](C)C(=O)O[C@@H](C)[C@@H](CC(C)C)Oc2ccccc2)c1OCOC(C)=O [Cmpd 557] | A (> 80) | A (> 80) | A (> 80) | A (> 80) | B (≤ 80) |  |  |  |  |  |  |  |  |
| COc1ccnc(C(=O)N[C@H](C)C(=O)O[C@H](C)[C@@H](Oc2ccccc2)c2ccccc2)c1OCOC(C)=O [Cmpd 549] | B (≤ 80) | B (≤ 80) | D | D | B (≤ 80) |  |  |  |  |  |  |  |  |
| COc1ccnc(C(=O)N[C@@H](C)C(=O)O[C@@H](C)[C@H](Oc2ccccc2Cl)c2ccccc2)c1OC(C)=O [Cmpd 640] | A (> 80) | A (> 80) | A (> 80) | A (> 80) | B (≤ 80) |  |  |  |  |  |  |  |  |
